Results reported in patent publication US20200407370A1, “PEPTIDYLARGININE DEIMINASE INHIBITOR AND USE THEREOF” (Nanjing Transthera Biosciences Co., Ltd., priority 2018, published 2020).
Like-named read-outs stand apart in the source and are kept apart here.

Experiments:
[1] = Pharmacokinetics (PK) of the compound in rats; format: in vivo; conditions: rat, plasma, SD rats; for bioavailability / AUC(0-t) / clearance / Vd / half-life: n = 3; for bioavailability: read-out: F (absolute bioavailability); for clearance: read-out: Cl_obs iv (clearance) (converted); for Vd: read-out: Vz_obs iv (apparent volume of distribution); for Tmax: n = 3, median, read-out: Tmax po (time to maximum plasma concentration)
Description: Experimental Example 3: Pharmacokinetics (PK) of the Compound in Rats
The test compound was dissolved in a mixture of 5% v/v DMSO+20% v/v (30% v/v solutol (polyethylene glycol-15 hydroxystearate purchased from BASF, batch no. 84773247G0))+75% v/v brine to prepare a solution, which was then administered to SD rats by oral gavage at a dose of 5.0 mg/kg. Blood samples were collected at 15 min, 30 min, 1 h, 2 h, 4 h, 6 h, 8 h and 24 h.
The test compound was dissolved in a mixture of 5% v/v DMSO+20% v/v (30% v/v solutol)+75% v/v brine to prepare a solution, which was administered to SD rats by intravenous bolus at a dose of 1 mg/kg. Blood samples were collected at 5 min, 15 min, 30 min, 1 h, 2 h, 4 h, 6 h, 8 h and 24 h.
The animals were fixed, with tails warmed in a water bath 10 min before each sampling time point. About 100 μL of blood was collected via the tail vein, and the blood samples were collected in anticoagulation tubes containing EDTA-K2. The blood samples were centrifuged at 8,000 rpm for 6 min at 4° C. to give plasma samples within 30 min after collection. The plasma samples were stored in a refrigerator at −80° C. before test.
The sample was taken out from the −80° C. refrigerator, and vortexed for 5 min after naturally thawed at room temperature. 20 μL of plasma sample was pipetted into a 1.5 mL centrifuge tube, and 200 μL of 100 ng/mL internal standard working solution (a solution of tolbutamide in methanol) was added. The resulting mixture was mixed, vortexed for 5 min, and then centrifuged at 12,000 rpm for 5 min. 50 μL of the supernatant was pipetted into a 96-well plate with 150 μL of water per well, and the plate was vortexed for 5 min before LC-MS/MS analysis.
The concentration was calculated by Analyst 1.6.3 from AB Sciex. Parameters such as mean, standard deviation and coefficient of variation (excluding those output directly by Analyst 1.6.3) were calculated by Microsoft Excel. PK parameters were calculated by Pharsight Phoenix 6.1 software NCA (Tmax was in median).

[2] = target: T1, Peptidylarginine deiminase 4 (PAD4) (Homo sapiens, UniProt Q9UM07); assay: Assay of enzyme-inhibiting activity (PAD4, FAM-AcH4(1-5) peptide, Caliper detection); format: biochemical; conditions: 10 nM PAD4, 5 μM peptide, 0.1 mM Ca2+, pH 8.0
T1 construct: purchased Cayman 10500
Description: Experimental Example 1: Assay of Enzyme-Inhibiting Activity of Compound
Sample: The compound disclosed herein prepared according to exemplary methods.
Peptidylarginine deiminase 4 (PAD4): Cayman, Cat. No. 10500, Lot. No. 0519694;
Carboxyfluorescein-labeled peptide (Peptide FAM-AcH4 (1-5)): GL Biochem, Cat. No. 0200046, Lot. No. P161110-TL545976;
An appropriate amount of the compound to be assayed was dissolved in DMSO to 10 mM. An appropriate amount of 10 mM mother liquor of the compound to be assayed was diluted to 1.5 mM with DMSO, and the solution was then serially diluted 3-fold with DMSO to give 50× concentrations of gradient compound solutions. Finally, 10-fold dilution was carried out with reaction buffer (an aqueous solution of 100 mM HEPES (2-[4-(2-hydroxyethyl)piperazin-1-yl]ethanesulfonic acid) containing 0.01% v/v Triton, pH 8.0) to give 5× concentrations of gradient compound solutions (150 μM, 50 μM, 16.667 μM, 5.556 μM, 1.852 μM, 0.617 μM, 0.206 μM, 0.069 μM, 0.023 μM, and 0.008 μM).
1) Reaction buffer: aqueous solution of 100 mM HEPES (2-[4-(2-hydroxyethyl)piperazin-1-yl]ethanesulfonic acid) containing 0.01% v/v Triton, pH 8.0;
2) Stop solution: aqueous solution of 100 mM HEPES (2-[4-(2-hydroxyethyl)piperazin-1-yl]ethanesulfonic acid) containing 0.015% w/v Brij-35, 0.2% v/v Coating Reagent (coating solution) #3 (PE, part no. 760050) and 50 mM EDTA, pH 8.0;
3) 2.5× enzyme solution: An appropriate amount of PAD4 was diluted to 2.5× (final concentration: 10 nM) with reaction buffer;
4) 2.5× polypeptide solution: An appropriate amount of carboxyfluorescein -labeled peptide (FAM-AcH4(1-5) peptide) and CaCl2) solution was diluted to 2.5× (the final concentration of polypeptide: 5 μM, the final concentration of Ca^2+: 0.1 mM) with reaction buffer.
5 μL of 5× compound solutions or solvents with different concentrations were added to a 384-well plate, 10 μL of 2.5× enzyme solution was then added, and the plate was incubated at room temperature for 10 min. 10 μL of 2.5× polypeptide solution was then added to each well, and the plate was incubated at 28° C. for a certain period of time. 25 μL of stop solution was added to stop reaction. Caliper was used for detection. The inhibition rate was calculated according to the following formula:
Inhibition percentage=(max−transformation)/(max−min)*100.
“max” denotes DMSO control; and “min” denotes low control.

[3] = IV 1 mg/kg, read-out: AUClast iv (area under concentration-time curve 0-24 h)
[4] = IV 1 mg/kg, read-out: tz1/2 iv (terminal half-life) (converted)
[5] = PO 5 mg/kg, read-out: AUClast po (area under concentration-time curve 0-24 h)
[6] = PO 5 mg/kg, read-out: tz1/2 po (terminal half-life) (converted)

T1 sequence (Q9UM07 whole entry): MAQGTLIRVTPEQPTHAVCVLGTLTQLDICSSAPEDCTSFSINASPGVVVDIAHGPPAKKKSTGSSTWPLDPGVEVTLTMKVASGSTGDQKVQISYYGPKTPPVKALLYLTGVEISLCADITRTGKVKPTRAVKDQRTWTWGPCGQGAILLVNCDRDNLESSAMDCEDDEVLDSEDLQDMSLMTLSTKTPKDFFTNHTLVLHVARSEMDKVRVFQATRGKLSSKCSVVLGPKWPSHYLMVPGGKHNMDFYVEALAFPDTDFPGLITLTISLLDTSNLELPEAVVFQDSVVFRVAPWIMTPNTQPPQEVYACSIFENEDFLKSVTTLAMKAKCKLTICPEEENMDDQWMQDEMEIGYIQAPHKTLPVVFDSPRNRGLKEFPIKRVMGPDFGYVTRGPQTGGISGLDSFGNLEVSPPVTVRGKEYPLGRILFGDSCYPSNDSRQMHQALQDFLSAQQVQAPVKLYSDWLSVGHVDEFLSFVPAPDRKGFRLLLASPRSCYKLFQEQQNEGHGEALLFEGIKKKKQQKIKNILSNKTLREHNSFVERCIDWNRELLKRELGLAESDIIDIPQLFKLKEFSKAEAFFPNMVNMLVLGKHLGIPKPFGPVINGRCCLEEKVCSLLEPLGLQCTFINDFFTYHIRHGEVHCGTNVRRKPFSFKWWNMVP

SMILES	bioavailability ([1]; IV 1 mg/kg, PO 5 mg/kg) [%]	AUC(0-t) [1, 3] [ng·h/mL]	clearance ([1]; IV 1 mg/kg) [mL/min/kg]	Vd ([1]; IV 1 mg/kg) [L/kg]	half-life [1, 4] [h]	Tmax ([1]; PO 5 mg/kg) [h]	AUC(0-t) [1, 5] [ng·h/mL]	half-life [1, 6] [h]	IC50 [2] [nM]
COc1cc(C(=O)N2CCC[C@@H](N)C2)cc2nc(-c3cc4ccsc4n3CC(C)C)n(C)c12 [Compound 20, (R)-(3-aminopiperidin-1-yl)(2-(6-isobutyl-6H-thieno[2,3-b]pyrrol-5-yl)-7-methoxy-1-methyl-1H-benzo[d]imidazol-5-yl)methanone]	71.2	3160	5	2.86	6.94	8	11200	13.2	58
CCn1c(-c2nc3cc(C(=O)N4CCC[C@@H](N)C4)cc(OC)c3n2C)cc2cc(C)sc21 [Compound 9, (R)-(3-aminopiperidin-1-yl)(2-(6-ethyl-2-methyl-6H-thieno[2,3-b]pyrrol-5-yl)-7-methoxy-1-methyl-1H-benzo[d]imidazol-5-yl)methanone]	41.8	303	43.7	22	5.96	6	633	6.33	110
COc1cc(C(=O)N2CCC[C@@H](N)C2)cc2nc(-c3cc4ccsc4n3CC(F)(F)F)n(C)c12 [Compound 21, (R)-(3-aminopiperidin-1-yl)(7-methoxy-1-methyl-2-(6-(2,2,2-trifluoroethyl)-6H-thieno[2,3-b]pyrrol-5-yl)-1H-benzo[d]imidazol-5-yl)methanone]	33.3	772	15.3	8.73	6.93	8	1290	4.7	55
CCn1c(-c2nc3cc(C(=O)N4CCC[C@@H](N)C4)cc(OC)c3n2C)cc2ccsc21 [Compound 3, (R)-(3-aminopiperidin-1-yl)(2-(6-ethyl-6H-thieno[2,3-b]pyrrol-5-yl)-7-methoxy-1-methyl-1H-benzo[d]imidazol-5-yl)methanone]	15.6	1200	13.2	11.2	9.97	6	934		200

These reach a lower IC50 [2]. Values come first.

bioavailability ([1]; IV 1 mg/kg, PO 5 mg/kg) [%]	AUC(0-t) [1, 3] [ng·h/mL]	clearance ([1]; IV 1 mg/kg) [mL/min/kg]	Vd ([1]; IV 1 mg/kg) [L/kg]	half-life [1, 4] [h]	Tmax ([1]; PO 5 mg/kg) [h]	AUC(0-t) [1, 5] [ng·h/mL]	half-life [1, 6] [h]	IC50 [2] [nM]	SMILES
31.2	887	18	11.6	7.9	6	1380	7.52	25	COc1cc(C(=O)N2CCC[C@@H](N)C2)cc2nc(-c3cc4cc(C)sc4n3CC3CC3)n(C)c12 [Compound 23, (R)-(3-aminopiperidin-1-yl)(2-(6-(cyclopropylmethyl)-2-methyl-6H-thieno[2,3-b]pyrrol-5-yl)-7-methoxy-1-methyl-1H-benzo[d]imidazol-5-yl)methanone]
46.6	1010	16.7	5.64	3.92	6	2360	3.96	36	COc1cc(C(=O)N2CCC[C@@H](N)C2)cc2nc(-c3cc4ccsc4n3CC3CC3)n(C)c12 [Compound 18, (R)-(3-aminopiperidin-1-yl)(2-(6-(cyclopropylmethyl)-6H-thieno[2,3-b]pyrrol-5-yl)-7-methoxy-1-methyl-1H-benzo[d]imidazol-5-yl)methanone]
35	7680	1.67	1.76	14.6	6	13500	12	40	COc1cc(C(=O)N2CCC[C@@H](N)C2)cc2nc(-c3cc4ccsc4n3CC3CCC3)n(C)c12 [Compound 22, (R)-(3-aminopiperidin-1-yl)(2-(6-(cyclobutylmethyl)-6H-thieno[2,3-b]pyrrol-5-yl)-7-methoxy-1-methyl-1H-benzo[d]imidazol-5-yl)methanone]
